In ChEMBL document CHEMBL4837183, “Antiproliferative Bufadienolides from the Bulbs of Drimia altissima” (2021):

Tests used:
Type in all cases: functional
[1] = test system: SF-268; assay: Growth inhibition of human SF-268 cells measured after 48 hrs by SRB assay
[2] = test system: SF-295; assay: Growth inhibition of human SF-295 cells measured after 48 hrs by SRB assay
[3] = test system: SF-539; assay: Growth inhibition of human SF-539 cells measured after 48 hrs by SRB assay
[4] = test system: SNB-19; assay: Growth inhibition of human SNB-19 cells measured after 48 hrs by SRB assay
[5] = test system: SNB-75; assay: Growth inhibition of human SNB-75 cells measured after 48 hrs by SRB assay
[6] = test system: U-251; assay: Growth inhibition of human U-251 cells measured after 48 hrs by SRB assay
[7] = test system: A549; assay: Growth inhibition of human A549 cells measured after 48 hrs by SRB assay
[8] = test system: HOP-62; assay: Growth inhibition of human HOP-62 cells measured after 48 hrs by SRB assay
[9] = test system: HOP-92; assay: Growth inhibition of human HOP-92 cells measured after 48 hrs by SRB assay
[10] = test system: NCI-H226; assay: Growth inhibition of human NCI-H226 cells measured after 48 hrs by SRB assay
[11] = test system: NCI-H23; assay: Growth inhibition of human NCI-H23 cells measured after 48 hrs by SRB assay
[12] = test system: NCI-H322M; assay: Growth inhibition of human NCI-H322M cells measured after 48 hrs by SRB assay
[13] = test system: NCI-H460; assay: Growth inhibition of human NCI-H460 cells measured after 48 hrs by SRB assay
[14] = test system: NCI-H522; assay: Growth inhibition of human NCI-H522 cells measured after 48 hrs by SRB assay
[15] = test system: PC-3; assay: Growth inhibition of human PC-3 cells measured after 48 hrs by SRB assay
[16] = test system: DU-145; assay: Growth inhibition of human DU-145 cells measured after 48 hrs by SRB assay
[17] = test system: IGROV-1; assay: Growth inhibition of human IGROV-1 cells measured after 48 hrs by SRB assay
[18] = test system: OVCAR-3; assay: Growth inhibition of human OVCAR-3 cells measured after 48 hrs by SRB assay
[19] = test system: OVCAR-5; assay: Growth inhibition of human OVCAR-5 cells measured after 48 hrs by SRB assay
[20] = test system: OVCAR-8; assay: Growth inhibition of human OVCAR-8 cells measured after 48 hrs by SRB assay
[21] = test system: NCI/ADR-RES; assay: Growth inhibition of human NCI/ADR-RES cells measured after 48 hrs by SRB assay
[22] = test system: SK-OV-3; assay: Growth inhibition of human SK-OV-3 cells measured after 48 hrs by SRB assay
[23] = test system: 786-0; assay: Growth inhibition of human 786-0 cells measured after 48 hrs by SRB assay
[24] = test system: A498; assay: Growth inhibition of human A498 cells measured after 48 hrs by SRB assay
[25] = test system: ACHN; assay: Growth inhibition of human ACHN cells measured after 48 hrs by SRB assay
[26] = test system: CAKI-1; assay: Growth inhibition of human CAKI-1 cells measured after 48 hrs by SRB assay
[27] = test system: RXF 393; assay: Growth inhibition of human RXF 393 cells measured after 48 hrs by SRB assay
[28] = test system: SN12C; assay: Growth inhibition of human SN12C cells measured after 48 hrs by SRB assay
[29] = test system: TK-10; assay: Growth inhibition of human TK-10 cells measured after 48 hrs by SRB assay
[30] = test system: UO-31; assay: Growth inhibition of human UO-31 cells measured after 48 hrs by SRB assay
[31] = test system: CCRF-CEM; assay: Growth inhibition of human CCRF-CEM cells measured after 48 hrs by SRB assay
[32] = test system: HL-60; assay: Growth inhibition of human HL-60 cells measured after 48 hrs by SRB assay
[33] = test system: K562; assay: Growth inhibition of human K562 cells measured after 48 hrs by SRB assay
[34] = test system: MOLT-4; assay: Growth inhibition of human MOLT-4 cells measured after 48 hrs by SRB assay
[35] = test system: SR; assay: Growth inhibition of human SR cells measured after 48 hrs by SRB assay
[36] = test system: COLO 205; assay: Growth inhibition of human COLO 205 cells measured after 48 hrs by SRB assay
[37] = test system: HCC 2998; assay: Growth inhibition of human HCC 2998 cells measured after 48 hrs by SRB assay
[38] = test system: HCT-116; assay: Growth inhibition of human HCT-116 cells measured after 48 hrs by SRB assay
[39] = test system: HCT-15; assay: Growth inhibition of human HCT-15 cells measured after 48 hrs by SRB assay
[40] = test system: HT-29; assay: Growth inhibition of human HT-29 cells measured after 48 hrs by SRB assay
[41] = test system: KM12; assay: Growth inhibition of human KM12 cells measured after 48 hrs by SRB assay
[42] = test system: SW-620; assay: Growth inhibition of human SW-620 cells measured after 48 hrs by SRB assay
[43] = test system: LOX IMVI; assay: Growth inhibition of human LOX IMVI cells measured after 48 hrs by SRB assay
[44] = test system: Malme-3M; assay: Growth inhibition of human Malme-3M cells measured after 48 hrs by SRB assay
[45] = test system: M14; assay: Growth inhibition of human M14 cells measured after 48 hrs by SRB assay
[46] = test system: MDA-MB-435; assay: Growth inhibition of human MDA-MB-435 cells measured after 48 hrs by SRB assay
[47] = test system: SK-MEL-2; assay: Growth inhibition of human SK-MEL-2 cells measured after 48 hrs by SRB assay
[48] = test system: SK-MEL-28; assay: Growth inhibition of human SK-MEL-28 cells measured after 48 hrs by SRB assay
[49] = test system: SK-MEL-5; assay: Growth inhibition of human SK-MEL-5 cells measured after 48 hrs by SRB assay
[50] = test system: UACC-257; assay: Growth inhibition of human UACC-257 cells measured after 48 hrs by SRB assay
[51] = test system: UACC-62; assay: Growth inhibition of human UACC-62 cells measured after 48 hrs by SRB assay
[52] = test system: MCF7; assay: Growth inhibition of human MCF7 cells measured after 48 hrs by SRB assay
[53] = test system: MDA-MB-231; assay: Growth inhibition of human MDA-MB-231 cells measured after 48 hrs by SRB assay
[54] = test system: Hs-578T; assay: Growth inhibition of human Hs-578T cells measured after 48 hrs by SRB assay
[55] = test system: BT-549; assay: Growth inhibition of human BT-549 cells measured after 48 hrs by SRB assay
[56] = test system: T47D; assay: Growth inhibition of human T47D cells measured after 48 hrs by SRB assay
[57] = test system: MDA-MB-468; assay: Growth inhibition of human MDA-MB-468 cells measured after 48 hrs by SRB assay

**Q.** For `C[C@]12CC[C@H]3[C@@H](CC[C@H]4C[C@@H](O)CC[C@@]43C=O)[C@@]1(O)CC[C@@H]2c1ccc(=O)oc1`, which GI50 [1] is on record?
**A.** 1070 nM

**Q.** What about the GI50 [2] of the same compound?
**A.** 1980 nM

**Q.** And the GI50 [3]?
**A.** 1470 nM

**Q.** What about the GI50 [4] of the same compound?
**A.** 6410 nM

**Q.** What about the GI50 [5] of the same compound?
**A.** 3180 nM

**Q.** And the GI50 [6]?
**A.** 4470 nM

**Q.** And the GI50 [7]?
**A.** 562 nM

**Q.** And the GI50 [8]?
**A.** 1100 nM

**Q.** And the GI50 [9]?
**A.** 3220 nM

**Q.** And the GI50 [10]?
**A.** 6870 nM

**Q.** And the GI50 [11]?
**A.** 1710 nM

**Q.** What about the GI50 [12] of the same compound?
**A.** 3120 nM

**Q.** And the GI50 [13]?
**A.** 556 nM

**Q.** What about the GI50 [14] of the same compound?
**A.** 694 nM

**Q.** And the GI50 [15]?
**A.** 3530 nM

**Q.** And the GI50 [16]?
**A.** 1180 nM

**Q.** And the GI50 [17]?
**A.** 5060 nM

**Q.** And the GI50 [18]?
**A.** 1710 nM

**Q.** And the GI50 [19]?
**A.** 5210 nM

**Q.** What about the GI50 [20] of the same compound?
**A.** 2830 nM

**Q.** And the GI50 [21]?
**A.** 1490 nM

**Q.** And the GI50 [22]?
**A.** 5630 nM

**Q.** What about the GI50 [23] of the same compound?
**A.** 1760 nM

**Q.** And the GI50 [24]?
**A.** 1130 nM

**Q.** What about the GI50 [25] of the same compound?
**A.** 502 nM

**Q.** What about the GI50 [26] of the same compound?
**A.** 1500 nM

**Q.** And the GI50 [27]?
**A.** 418 nM

**Q.** And the GI50 [28]?
**A.** 877 nM

**Q.** What about the GI50 [29] of the same compound?
**A.** 2580 nM

**Q.** What about the GI50 [30] of the same compound?
**A.** 1600 nM

**Q.** And the GI50 [31]?
**A.** 1070 nM

**Q.** What about the GI50 [32] of the same compound?
**A.** 3410 nM

**Q.** And the GI50 [33]?
**A.** 4280 nM

**Q.** What about the GI50 [34] of the same compound?
**A.** 665 nM

**Q.** And the GI50 [35]?
**A.** 2030 nM

**Q.** And the GI50 [36]?
**A.** 6520 nM

**Q.** What about the GI50 [37] of the same compound?
**A.** 8740 nM

**Q.** And the GI50 [38]?
**A.** 633 nM

**Q.** And the GI50 [39]?
**A.** 2150 nM

**Q.** What about the GI50 [40] of the same compound?
**A.** 2700 nM

**Q.** And the GI50 [41]?
**A.** 6250 nM

**Q.** What about the GI50 [42] of the same compound?
**A.** 1340 nM

**Q.** What about the GI50 [43] of the same compound?
**A.** 2370 nM

**Q.** And the GI50 [44]?
**A.** 3470 nM

**Q.** What about the GI50 [45] of the same compound?
**A.** 4140 nM

**Q.** What about the GI50 [46] of the same compound?
**A.** 3500 nM

**Q.** What about the GI50 [47] of the same compound?
**A.** 4300 nM

**Q.** And the GI50 [48]?
**A.** 6050 nM

**Q.** And the GI50 [49]?
**A.** 2350 nM

**Q.** And the GI50 [50]?
**A.** 4500 nM

**Q.** What about the GI50 [51] of the same compound?
**A.** 3200 nM

**Q.** What about the GI50 [52] of the same compound?
**A.** 990 nM

**Q.** And the GI50 [53]?
**A.** 14100 nM

**Q.** And the GI50 [54]?
**A.** 739 nM

**Q.** What about the GI50 [55] of the same compound?
**A.** 1730 nM

**Q.** What about the GI50 [56] of the same compound?
**A.** 4740 nM

**Q.** What about the GI50 [57] of the same compound?
**A.** 8230 nM

**Q.** What does the source list for `CC(=O)OC[C@H]1O[C@@H](O[C@@H]2C=C3CC[C@@H]4[C@H]([C@@H](O)C[C@]5(C)[C@@H](c6ccc(=O)oc6)CC[C@]45O)[C@@]3(C)CC2)[C@H](OC(C)=O)[C@@H](OC(C)=O)[C@@H]1OC(C)=O`?
**A.** GI50 [1]: 109 nM; GI50 [2]: 129 nM; GI50 [3]: 77 nM; GI50 [4]: 421 nM; GI50 [5]: 302 nM; GI50 [6]: 295 nM; GI50 [7]: 75 nM; GI50 [8]: 105 nM; GI50 [9]: 286 nM; GI50 [10]: 264 nM; GI50 [11]: 181 nM; GI50 [12]: 114 nM; GI50 [13]: 65 nM; GI50 [14]: 70 nM; GI50 [15]: 247 nM; GI50 [16]: 109 nM; GI50 [17]: 111 nM; GI50 [18]: 92 nM; GI50 [19]: 381 nM; GI50 [20]: 246 nM; GI50 [21]: 283 nM; GI50 [22]: 322 nM; GI50 [23]: 102 nM; GI50 [24]: 64 nM; GI50 [25]: 56 nM; GI50 [26]: 98 nM; GI50 [27]: 41 nM; GI50 [28]: 65 nM; GI50 [29]: 128 nM; GI50 [30]: 92 nM; GI50 [31]: 110 nM; GI50 [32]: 140 nM; GI50 [33]: 386 nM; GI50 [34]: 88 nM; GI50 [35]: 285 nM; GI50 [36]: 629 nM; GI50 [37]: 677 nM; GI50 [38]: 75 nM; GI50 [39]: 225 nM; GI50 [40]: 321 nM; GI50 [41]: 597 nM; GI50 [42]: 114 nM; GI50 [43]: 314 nM; GI50 [44]: 105 nM; GI50 [45]: 416 nM; GI50 [46]: 290 nM; GI50 [47]: 362 nM; GI50 [48]: 273 nM; GI50 [49]: 95 nM; GI50 [50]: 376 nM; GI50 [51]: 155 nM; GI50 [52]: 103 nM; GI50 [53]: 812 nM; GI50 [54]: 91 nM; GI50 [55]: 93 nM; GI50 [56]: 338 nM; GI50 [57]: 642 nM
